Experimental data published in US4048299A, “Anticaries confectionaries and oral health products” (William Wrigley, Jr. Co., priority 1970, dated 1977).

Legend:
[1] = In vivo caries evaluation, Osborne-Mendel strain 2 rat; design: species or system rat (Osborne-Mendel strain 2); conditions: Table I; 90 days; Student's test, 95 percent confidence limit
Source text: Standard laboratory techniques were used to complie the data presented. In each case the aldehyde was incorporated into each specimen's food in a one percent, by weight, quantity, over a period of several weeks. In all cases, caries reduction was noted.
The aldehydes tested in vivo were pyruvaldehyde, d,1-glyceraldehyde, crystalline dimer, glycolaldehyde, octanaldehyde, nonanaldehyde, decanaldehyde, undecylenic aldehyde, and lauric aldehyde. The polyaldehydes tested were dialdehyde starch, dialdehyde starch 50 percent oxidized, dialdehyde starch 90 percent oxidized, and dialdehyde galactomannan gum.
^(a) Agents were incorporated in the diet at a 1 percent level.

[2] = test system: Mixed human oral microorganisms; assay: Acid production inhibition by aldehydes in product vehicles, broth-tube technique; format: cell-based; conditions: 1 to 5 percent aldehyde
Streptococcus spp. KI-R = assay: as above; format: cell-based; conditions: 1 to 5 percent aldehyde
Streptococcus spp. FA-1 = assay: Growth inhibition of oral microorganisms in vitro, pour plates; format: cell-based; conditions: Table IX
Method: (§1) (a)Determined on freshly grown pure cultures. Pour plates were incubated

[3] = test system: Lactobacillus casei and Streptococcus sp. FA-1; assay: Acid-production inhibition by broth-tube assay, 0.1 percent of compound; format: cell-based; conditions: Table X; 0.1 percent of compound; read-out: Activity, Acid-Production Inhibition%
Method: ^(a) Activity was measured by broth-tube assay to determine percent
(§2) acid-production inhibition obtained by Lactobacillus casei and
Streptococcus sp. FA-1 in the presence of 0.1 percent of compound.
^(a) Activity was measured by broth-tube assay to determine percent o
as §2
Streptococcus sp. FA-1 in the presence of 0.1% of compound. Symbols

L. casei = assay: Growth inhibition of oral microorganisms in vitro, pour plates; format: cell-based, Lactobacillus casei; conditions: Table IX
Method: as §1

[4] = in compressed candy tablet, 2 h incubation
[5] = in compressed candy tablet, 5 h incubation
[6] = in compressed candy tablet, 24 h incubation
[7] = in dextrose syrup, 2 h incubation
[8] = in dextrose syrup, 5 h incubation
[9] = in dextrose syrup, 24 h incubation
[10] = in sucrose syrup, 2 h incubation
[11] = in sucrose syrup, 5 h incubation
[12] = in sucrose syrup, 24 h incubation
[13] = in tooth powder (aqueous extract), 2 h incubation
[14] = in tooth powder (aqueous extract), 5 h incubation
[15] = in tooth powder (aqueous extract), 24 h incubation
[16] = in toothpaste (aqueous extract), 2 h incubation
[17] = in toothpaste (aqueous extract), 5 h incubation
[18] = in toothpaste (aqueous extract), 24 h incubation
[19] = pour plates incubated 48 - 72 hours

Row | SMILES | Acid Production Inhibition [2, 4] [Per Cent] | Acid Production Inhibition [2, 5] [Per Cent] | Acid Production Inhibition [2, 6] [Per Cent] | Acid Production Inhibition [2, 7] [Per Cent] | Acid Production Inhibition [2, 8] [Per Cent] | Acid Production Inhibition [2, 9] [Per Cent] | Acid Production Inhibition [2, 10] [Per cent] | Acid Production Inhibition [2, 11] [Per cent] | Acid Production Inhibition [2, 12] [Per cent] | Acid Production Inhibition [2, 16] [Per cent] | Acid Production Inhibition [2, 17] [Per cent] | Acid Production Inhibition [2, 18] [Per cent] | Acid Production Inhibition (Streptococcus spp. KI-R; [4]) [Per Cent] | Acid Production Inhibition (Streptococcus spp. KI-R; [5]) [Per Cent] | Acid Production Inhibition (Streptococcus spp. KI-R; [6]) [Per Cent] | Acid Production Inhibition (Streptococcus spp. KI-R; [7]) [Per Cent] | Acid Production Inhibition (Streptococcus spp. KI-R; [8]) [Per Cent] | Acid Production Inhibition (Streptococcus spp. KI-R; [9]) [Per Cent] | Acid Production Inhibition (Streptococcus spp. KI-R; [10]) [Per cent] | Acid Production Inhibition (Streptococcus spp. KI-R; [11]) [Per cent] | further results
1 | O=CCO [Glycolaldehyde] | 0 | 84 | 72 | 15 | 87 | 87 | 44 | 90 | 85 | 0 | 0 | 0 | 0 | 0 | 73 | 57 | 81 | 77 | 19 | 85 | Caries Extent Reduction, statistical evaluation [1]: Significant; Acid Production Inhibition ([2]; in mouthwash, 2 h incubation): 0 Per cent; Acid Production Inhibition ([2]; in mouthwash, 5 h incubation): 87 Per cent; Acid Production Inhibition ([2]; in mouthwash, 24 h incubation): 80 Per cent; Acid Production Inhibition [2, 13]: 0 Per cent; Acid Production Inhibition [2, 14]: 82 Per cent; Acid Production Inhibition [2, 15]: 77 Per cent; Acid Production Inhibition (Streptococcus spp. KI-R; in mouthwash, 2 h incubation): 0 Per cent; Acid Production Inhibition (Streptococcus spp. KI-R; in mouthwash, 5 h incubation): 0 Per cent; Acid Production Inhibition (Streptococcus spp. KI-R; in mouthwash, 24 h incubation): 78 Per cent; Acid Production Inhibition (Streptococcus spp. KI-R; [12]): 84 Per cent; Acid Production Inhibition (Streptococcus spp. KI-R; [13]): 0 Per cent; Acid Production Inhibition (Streptococcus spp. KI-R; [14]): 0 Per cent; Acid Production Inhibition (Streptococcus spp. KI-R; [15]): 0 Per cent; Acid Production Inhibition (Streptococcus spp. KI-R; [16]): 0 Per cent; Acid Production Inhibition (Streptococcus spp. KI-R; [17]): 0 Per cent; Acid Production Inhibition (Streptococcus spp. KI-R; [18]): 0 Per cent
2 | CCCCCCCCCC=O [Decanaldehyde] | 100 | 100 | 19 | 0 | 95 | 91 | 78 | 94 | 95 | 0 | 0 | 0 | 50 | 85 | 98 | 35 | 91 | 89 | 75 | 98 | Bacterial Population, Experimental (Streptococcus spp. FA-1; control 2 × 10^8 to 5 × 10^8): 0; Inhibition (growth) (Streptococcus spp. FA-1; [19]): 100%; inhibition at 0.1 % [3]: 99 to 100%; Bacterial Population, Experimental (L. casei; control 8 × 10^8 to 1 × 10^9): 4 × 10^2; Inhibition (growth) (L. casei; [19]): > 99.99%; Acid Production Inhibition (Streptococcus spp. KI-R; [12]): 100 Per cent; Acid Production Inhibition (Streptococcus spp. KI-R; [16]): 40 Per cent; Acid Production Inhibition (Streptococcus spp. KI-R; [17]): 100 Per cent; Acid Production Inhibition (Streptococcus spp. KI-R; [18]): 67 Per cent
